Where two headings read alike, the source gives them in different places.

Test [1] deals with Victoria/3/75 (H3N2) influenza virus. Put plainly: microbe, parasite or virus in culture. Type of test: cell-based. As to conditions: Influenza A virus, H3N2, MDCK, single use, read-out: Inhibition rate; for inhibition at 0.0125 µg/mL: 0.0125 μg/mL; for inhibition at 0.025 µg/mL: 0.025 μg/mL; for inhibition at 0.05 µg/mL: 0.05 μg/mL; for inhibition at 0.1 µg/mL: 0.1 μg/mL; for inhibition at 0.2 µg/mL: 0.2 μg/mL; for inhibition at 0.125 µg/mL: 0.125 μg/mL; for inhibition at 0.25 µg/mL: 0.25 μg/mL; for inhibition at 0.5 µg/mL: 0.5 μg/mL; for inhibition at 1 µg/mL: 1 μg/mL; for inhibition at 2 µg/mL: 2 μg/mL; for inhibition at 4 µg/mL: 4 μg/mL.

In test [2] the test system is influenza virus (PR/8 (H1N1)). Put plainly: microbe, parasite or virus in culture. Type of test: cell-based. As to conditions: unidentified influenza virus, MDCK; for inhibition at 0.00625 µg/mL: read-out: Inhibition rate, single use, 0.00625 μg/mL; for inhibition at 0.0125 µg/mL: read-out: Inhibition rate, single use, 0.0125 μg/mL; for inhibition at 0.025 µg/mL: read-out: Inhibition rate, single use, 0.025 μg/mL; for inhibition at 0.05 µg/mL: read-out: Inhibition rate, single use, 0.05 μg/mL; for inhibition at 0.1 µg/mL: read-out: Inhibition rate, single use, 0.1 μg/mL; for inhibition at 0.2 µg/mL: read-out: Inhibition rate, single use, 0.2 μg/mL; for inhibition at 0.4 µg/mL: read-out: Inhibition rate, single use, 0.4 μg/mL; for inhibition at 0.0625 µg/mL: read-out: Inhibition rate, single use, 0.0625 μg/mL; for inhibition at 0.125 µg/mL: read-out: Inhibition rate, single use, 0.125 μg/mL; for inhibition at 0.25 µg/mL: read-out: Inhibition rate, single use, 0.25 μg/mL; for inhibition at 0.5 µg/mL: read-out: Inhibition rate, single use, 0.5 μg/mL; for inhibition at 1 µg/mL: read-out: Inhibition rate, single use, 1 μg/mL; for inhibition at 2 µg/mL: read-out: Inhibition rate, single use, 2 μg/mL.

Regarding `CCC(CC)O[C@@H]1C=C(C(=O)O)C[C@H](N)[C@H]1NC(C)=O` [GS-4071], the inhibition at 0.003125 µg/mL in test [1] (0.003125 μg/mL, Test Example 3) stood at 8.6%. In addition, the inhibition at 0.00625 µg/mL in test [1] (0.00625 μg/mL, Test Example 3) came out at 14%. Further, in test [1] (Test Example 3), the inhibition at 0.0125 µg/mL was found to be 44%, the inhibition at 0.025 µg/mL is 54%, the inhibition at 0.05 µg/mL amounted to 68% and the inhibition at 0.1 µg/mL came out at 80%. The inhibition at 0.2 µg/mL in test [1] (Test Example 3) was found to be 88%. In addition, the inhibition at 0.00313 µg/mL in test [2] (read-out: Inhibition rate, single use, 0.00313 μg/mL, Test Example 1) is 1.9%. Also, in test [2] (Test Example 1), the inhibition at 0.00625 µg/mL amounted to 11%, the inhibition at 0.0125 µg/mL is 14%, the inhibition at 0.025 µg/mL is 25% and the inhibition at 0.05 µg/mL turned out to be 29%. In test [2] (Test Example 1), the inhibition at 0.1 µg/mL is 42%, the inhibition at 0.2 µg/mL is 61% and the inhibition at 0.4 µg/mL turned out to be 73%. For the same molecule, the inhibition at 0.8 µg/mL in test [2] (read-out: Inhibition rate, single use, 0.8 μg/mL, Test Example 1) turned out to be 84%.

Turning to `NC(=O)c1nc(F)cnc1O` [T-705, 6-Fluoro-3-hydroxy-2-pyrazinecarboxamide], in test [1] (Test Example 3), the inhibition at 0.125 µg/mL was 2.6%, the inhibition at 0.25 µg/mL was found to be 9%, the inhibition at 0.5 µg/mL stood at 42% and the inhibition at 1 µg/mL stood at 76%. Besides, in test [1] (Test Example 3), the inhibition at 2 µg/mL was 86% and the inhibition at 4 µg/mL turned out to be 94%. Further, in test [1] (Test Example 4), the inhibition at 0.125 µg/mL came to 2.6%, the inhibition at 0.25 µg/mL was 9.2%, the inhibition at 0.5 µg/mL is 42% and the inhibition at 1 µg/mL was 76%. For the same molecule, in test [1] (Test Example 4), the inhibition at 2 µg/mL worked out at 86% and the inhibition at 4 µg/mL came to 94%. Besides, the inhibition at 0.0156 µg/mL in test [2] (read-out: Inhibition rate, single use, 0.0156 μg/mL, Test Example 1) is 1.9%. For the same molecule, in test [2] (read-out: Inhibition rate, single use, 0.0313 μg/mL, Test Example 1), the inhibition at 0.0313 µg/mL turned out to be 6.7%. In test [2] (Test Example 1), the inhibition at 0.0625 µg/mL was determined as 9.7%, the inhibition at 0.125 µg/mL was 27%, the inhibition at 0.25 µg/mL worked out at 43% and the inhibition at 0.5 µg/mL was determined as 60%. Besides, in test [2] (Test Example 1), the inhibition at 1 µg/mL worked out at 85% and the inhibition at 2 µg/mL was determined as 93%. Further, in test [2] (Test Example 2), the inhibition at 0.0625 µg/mL turned out to be 6.2%, the inhibition at 0.125 µg/mL was 17%, the inhibition at 0.25 µg/mL worked out at 34% and the inhibition at 0.5 µg/mL is 64%. Moreover, in test [2] (Test Example 2), the inhibition at 1 µg/mL turned out to be 77% and the inhibition at 2 µg/mL came out at 89%. The inhibition at 4 µg/mL in test [2] (read-out: Inhibition rate, single use, 4 μg/mL, Test Example 1) came out at 100%.

In the case of `CC(=O)N[C@H]1[C@H]([C@H](O)[C@H](O)CO)OC(C(=O)O)=C[C@@H]1N=C(N)N` [Zanamivir, zanamivir], in test [1] (Test Example 4), the inhibition at 0.0125 µg/mL is 7.4%, the inhibition at 0.025 µg/mL came out at 14%, the inhibition at 0.05 µg/mL came to 27% and the inhibition at 0.1 µg/mL is 40%. In test [1] (Test Example 4), the inhibition at 0.2 µg/mL worked out at 60%. Besides, the inhibition at 0.4 µg/mL in test [1] (0.4 μg/mL, Test Example 4) is 71%. In addition, in test [1] (0.8 μg/mL, Test Example 4), the inhibition at 0.8 µg/mL amounted to 81%. For the same molecule, the inhibition at 0.0031 µg/mL in test [2] (read-out: Inhibition rate, single use, 0.0031 μg/mL, Test Example 2) turned out to be 6.2%. Also, in test [2] (Test Example 2), the inhibition at 0.00625 µg/mL is 12%, the inhibition at 0.0125 µg/mL worked out at 23%, the inhibition at 0.025 µg/mL amounted to 28% and the inhibition at 0.05 µg/mL worked out at 49%. In addition, in test [2] (Test Example 2), the inhibition at 0.1 µg/mL stood at 60%, the inhibition at 0.2 µg/mL was determined as 67% and the inhibition at 0.4 µg/mL came to 75%.

The record behind these values is US8759354B2, “Pharmaceutical composition comprising pyrazine derivative, and method of using pyrazine derivative in combination” (priority 2007, dated 2014).
